Test results from patent publication US20170355705A1 (GlaxoSmithKline Intellectual Property (No.2) Limited, priority 2014, published 2017).

Biological target: T1, SIRT1 (Homo sapiens, UniProt Q96EB6)
T1 sequence (Q96EB6 1-747): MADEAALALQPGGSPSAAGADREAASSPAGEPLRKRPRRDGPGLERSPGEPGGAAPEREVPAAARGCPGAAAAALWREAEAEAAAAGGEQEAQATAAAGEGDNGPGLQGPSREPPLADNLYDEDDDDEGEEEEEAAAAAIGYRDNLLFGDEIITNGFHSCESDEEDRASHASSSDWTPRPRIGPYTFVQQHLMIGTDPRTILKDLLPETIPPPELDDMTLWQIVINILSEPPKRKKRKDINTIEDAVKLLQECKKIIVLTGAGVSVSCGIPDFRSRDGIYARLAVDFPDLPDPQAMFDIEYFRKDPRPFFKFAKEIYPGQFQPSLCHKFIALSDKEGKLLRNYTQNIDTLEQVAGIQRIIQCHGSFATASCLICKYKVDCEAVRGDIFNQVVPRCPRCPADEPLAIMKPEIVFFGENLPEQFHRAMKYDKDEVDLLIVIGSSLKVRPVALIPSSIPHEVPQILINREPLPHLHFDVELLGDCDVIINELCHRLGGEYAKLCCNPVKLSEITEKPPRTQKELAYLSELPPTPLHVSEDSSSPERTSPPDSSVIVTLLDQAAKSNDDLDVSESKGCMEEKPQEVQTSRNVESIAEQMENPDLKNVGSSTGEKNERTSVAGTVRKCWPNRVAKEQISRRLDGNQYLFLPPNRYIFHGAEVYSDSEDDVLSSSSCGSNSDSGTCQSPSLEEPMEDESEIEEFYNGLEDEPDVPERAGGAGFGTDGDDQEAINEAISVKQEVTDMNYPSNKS
Assay: Trp mass spectrometry assay of SIRT1 activity (EC1.5, percent maximum activation)
Assay type: biochemical
Settings: Trp mass spectrometry assay; for TRP Activity (EC1.5): EC1.5 = concentration giving 150% activation of SIRT1; for TRP MAX RESP (percent maximum fold activation): percent maximum activation of SIRT1
Source text: Mass spectrometry based assays were used to identify modulators of SIRT1 activity. […] The peptide was labeled with the fluorophore 5TMR (excitation 540 nm/emission 580 nm) at the C-terminus. The sequence of the peptide substrate was based on p53 with several modifications. In addition, the methionine residue naturally present in the sequence was replaced with the norleucine because the methionine may be susceptible to oxidation during synthesis and purification.
The Trp mass spectrometry assay was conducted as follows. […] The SIRT1 protein was obtained by cloning the SirT1 gene into a T7-promoter containing vector, which was then expressed in BL21(DE3) bacterial cells and purified as described in further detail below. Test compound was added at varying concentrations to this reaction mixture and the resulting reactions were monitored. After the 25 minute incubation with SIRT1, 10 μL of 10% formic acid was added to stop the reaction. The resulting reactions were sealed and frozen for later mass spec analysis. The relative SIRT1 activity was then determined by measuring the amount of O-acetyl-ADP-ribose (OAADPR) formed (or, alternatively, the amount of deacetylated Trp peptide generated) by the NAD-dependent sirtuin deacetylation reaction in the presence of varying concentrations of the test compound versus control reactions lacking the test compound. The degree to which the test agent activated deacetylation by SIRT1 was expressed as EC1.5 (i.e., the concentration of compound required to increase SIRT1 activity by 50% over the control lacking test compound), and Percent Maximum Activation (i.e., the maximum activity relative to control (100%) obtained for the test compound).
This time point was the same as that used for test compounds and, within the linear range, the endpoint represents a change in velocity.
For the above assay, SIRT1 protein was expressed and purified as follows. The SirT1 gene was cloned into a T7-promoter containing vector and transformed into BL21(DE3). The protein was expressed by induction with 1 mM IPTG as an N-terminal His-tag fusion protein at 18° C. overnight and harvested at 30,000×g. Cells were lysed with lysozyme in lysis buffer (50 mM Tris-HCl, 2 mM Tris[2-carboxyethyl]phosphine (TCEP), 10 μM ZnCl2, 200 mM NaCl) and further treated with sonication for 10 min for complete lysis. The protein was purified over a Ni-NTA column (Amersham) and fractions containing pure protein were pooled, concentrated and run over a sizing column (Sephadex S200 26/60 global). The peak containing soluble protein was collected and run on an Ion-exchange column (MonoQ). Gradient elution (200 mM-500 mM NaCl) yielded pure protein. This protein was concentrated and dialyzed against dialysis buffer (20 mM Tris-HCl, 2 mM TCEP) overnight. The protein was aliquoted and frozen at −80° C. until further use.
“NT” means not tested; “ND” means not determinable.

Row | SMILES | TRP Activity (EC1.5) | TRP MAX RESP (percent maximum fold activation)
1 | Cc1ccc(-c2cc(C)c3c(n2)N(C(=O)Nc2ccccn2)[C@H]2CCN3C2)cn1 [Example 9, (4S)-9-methyl-7-(6-methylpyridin-3-yl)-N-(pyridin-2-yl)-3,4-dihydro-1,4-methanopyrido[2,3-b][1,4]diazepine-5(2H)-carboxamide] | B (EC1.5 1-25 μM) | A (Fold activation ≧150%)
2 | Cc1ccc(-c2nc3c(cc2C#N)N2CC[C@@H](C2)N3C(=O)Nc2cccnc2)cn1 [Example 10, (4S)-8-cyano-7-(6-methylpyridin-3-yl)-N-(pyridin-3-yl)-3,4-dihydro-1,4-methanopyrido[2,3-b][1,4]diazepine-5(2H)-carboxamide] | B (EC1.5 1-25 μM) | A (Fold activation ≧150%)
3 | Cc1cc(-c2nc3c(cc2Br)N2CC[C@@H](C2)N3C(=O)Nc2ccccn2)ccn1 [Example 11, (4S)-8-bromo-7-(2-methylpyridin-4-yl)-N-(pyridin-2-yl)-3,4-dihydro-1,4-methanopyrido[2,3-b][1,4]diazepine-5(2H)-carboxamide] | B (EC1.5 1-25 μM) | A (Fold activation ≧150%)
4 | Cc1cc(-c2nc3c(cc2Br)N2CC[C@@H](C2)N3C(=O)Nc2cccnc2)ccn1 [Example 12, (4S)-8-bromo-7-(2-methylpyridin-4-yl)-N-(pyridin-3-yl)-3,4-dihydro-1,4-methanopyrido[2,3-b][1,4]diazepine-5(2H)-carboxamide] | B (EC1.5 1-25 μM) | A (Fold activation ≧150%)
5 | Cc1ccc(-c2cc(C)c3c(n2)N(C(=O)Nc2cccnc2)[C@H]2CCN3C2)cn1 [Example 13, (4S)-9-methyl-7-(6-methylpyridin-3-yl)-N-(pyridin-3-yl)-3,4-dihydro-1,4-methanopyrido[2,3-b][1,4]diazepine-5(2H)-carboxamide] | B (EC1.5 1-25 μM) | A (Fold activation ≧150%)
6 | Cc1cc(-c2nc3c(cc2F)N2CC[C@@H](C2)N3C(=O)Nc2cccnc2)ccn1 [Example 14, (4S)-8-fluoro-7-(2-methylpyridin-4-yl)-N-(pyridin-3-yl)-3,4-dihydro-1,4-methanopyrido[2,3-b][1,4]diazepine-5(2H)-carboxamide] | B (EC1.5 1-25 μM) | A (Fold activation ≧150%)
7 | Cc1cc(-c2nc3c(cc2F)N2CC[C@@H](C2)N3C(=O)Nc2ccccn2)ccn1 [Example 15, (4S)-8-fluoro-7-(2-methylpyridin-4-yl)-N-(pyridin-2-yl)-3,4-dihydro-1,4-methanopyrido[2,3-b][1,4]diazepine-5(2H)-carboxamide] | A (EC1.5<1 μM) | A (Fold activation ≧150%)
8 | Cc1ccc(-c2nc3c(cc2Cl)N2CC[C@@H](C2)N3C(=O)Nc2ccccn2)cn1 [Example 16, (4S)-8-chloro-7-(6-methylpyridin-3-yl)-N-(pyridin-2-yl)-3,4-dihydro-1,4-methanopyrido[2,3-b][1,4]diazepine-5(2H)-carboxamide] | B (EC1.5 1-25 μM) | A (Fold activation ≧150%)
9 | Cc1cc(-c2nc3c(cc2C)N2CC[C@@H](C2)N3C(=O)Nc2cccnc2)ccn1 [Example 17, (4S)-8-methyl-7-(2-methylpyridin-4-yl)-N-(pyridin-3-yl)-3,4-dihydro-1,4-methano pyrido[2,3-b][1,4]diazepine-5(2H)-carboxamide] | B (EC1.5 1-25 μM) | A (Fold activation ≧150%)
10 | O=C(Nc1ccnc(O[C@@H]2CCOC2)n1)N1c2nc(-c3cccc(C(F)(F)F)c3)c(Cl)cc2N2CC[C@H]1C2 [Example 18, (4S)-8-chloro-N-(2-(((R)-tetrahydrofuran-3-yl)oxy)pyrimidin-4-yl)-7-(3-(trifluoromethyl)phenyl)-3,4-dihydro-1,4-methanopyrido[2,3-b][1,4]diazepine-5(2H)-carboxamide] | B (EC1.5 1-25 μM) | A (Fold activation ≧150%)
11 | O=C(Nc1ccnc(O[C@H]2CCOC2)n1)N1c2nc(-c3cccc(C(F)(F)F)c3)c(Cl)cc2N2CC[C@H]1C2 [Example 19, (4S)-8-chloro-N-(2-(((S)-tetrahydrofuran-3-yl)oxy)pyrimidin-4-yl)-7-(3-(trifluoromethyl)phenyl)-3,4-dihydro-1,4-methanopyrido[2,3-b][1,4]diazepine-5(2H)-carboxamide] | A (EC1.5<1 μM) | A (Fold activation ≧150%)
12 | Cc1cc(-c2nc3c(cc2Cl)N2CC[C@@H](C2)N3C(=O)Nc2ccnc(O[C@H]3CCOC3)n2)ccn1 [Example 20, (4S)-8-chloro-7-(2-methylpyridin-4-yl)-N-(2-(((S)-tetrahydrofuran-3-yl)oxy)pyrimidin-4-yl)-3,4-dihydro-1,4-methanopyrido[2,3-b][1,4]diazepine-5(2H)-carboxamide] | C (EC1.5>25 μM) | A (Fold activation ≧150%)
13 | Cc1cc(-c2nc3c(cc2Cl)N2CC[C@@H](C2)N3C(=O)Nc2ccnc(OC3CCOCC3)n2)ccn1 [Example 21, (4S)-8-chloro-7-(2-methylpyridin-4-yl)-N-(2-((tetrahydro-2H-pyran-4-yl)oxy)pyrimidin-4-yl)-3,4-dihydro-1,4-methanopyrido[2,3-b][1,4]diazepine-5(2H)-carboxamide] | C (EC1.5>25 μM) | B (Fold Activation <150%)
14 | Cc1cc(-c2nc3c(cc2Cl)N2CC[C@@H](C2)N3C(=O)Nc2ccnc(O[C@@H]3CCOC3)n2)ccn1 [Example 22, (4S)-8-chloro-7-(2-methylpyridin-4-yl)-N-(2-(((R)-tetrahydrofuran-3-yl)oxy)pyrimidin-4-yl)-3,4-dihydro-1,4-methanopyrido[2,3-b][1,4]diazepine-5(2H)-carboxamide] | C (EC1.5>25 μM) | B (Fold Activation <150%)
15 | O=C(Nc1cncc(OC[C@H](O)CO)c1)N1c2nc(-c3cccc(C(F)(F)F)c3)c(Cl)cc2N2CC[C@H]1C2 [Example 23, (4S)-8-chloro-N-(5-((R)-2,3-dihydroxypropoxy)pyridin-3-yl)-7-(3-(trifluoromethyl)phenyl)-3,4-dihydro-1,4-methanopyrido[2,3-b][1,4]diazepine-5(2H)-carboxamide] | A (EC1.5<1 μM) | A (Fold activation ≧150%)
16 | O=C(Nc1cc(OC[C@H](O)CO)ncn1)N1c2nc(-c3cccc(C(F)(F)F)c3)c(Cl)cc2N2CC[C@H]1C2 [Example 24, (4S)-8-chloro-N-(6-((R)-2,3-dihydroxypropoxy)pyrimidin-4-yl)-7-(3-(trifluoromethyl)phenyl)-3,4-dihydro-1,4-methanopyrido[2,3-b][1,4]diazepine-5(2H)-carboxamide] | B (EC1.5 1-25 μM) | A (Fold activation ≧150%)
